Experimental data reported in the supplement of paper PMC10307832.

Key:
Assay in all cases: relative viability (nuclei count vs DMSO), 5 days (fraction); higher = more cells survive
BX 795 = compound: O=C(NCCCNc1nc(Nc2cccc(NC(=O)N3CCCC3)c2)ncc1I)c1cccs1 [BX 795]
How it was run: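 Viability was read as treated-well nuclei divided by vehicle-well nuclei, using the median across plates. Lung cancer cell lines in 1536-well plates were kept overnight at 37 °C, pinned with five √10-spaced library-drug doses, and after 5 days were Hoechst-stained, imaged at 4× and counted in MetaXpress. Plates passed only with control CV below 25% and at least one doubling.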

BX 795 + Lapatinib = compound: O=C(NCCCNc1nc(Nc2cccc(NC(=O)N3CCCC3)c2)ncc1I)c1cccs1 [BX 795] + CS(=O)(=O)CCNCc1ccc(-c2ccc3ncnc(Nc4ccc(OCc5cccc(F)c5)c(Cl)c4)c3c2)o1 [Lapatinib] (partner 2 µM)
How it was run: (§1)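 Relative viability was taken as the ratio of nuclei in treated wells to nuclei in vehicle wells. Lung cancer cell lines in 1536-well plates received compounds by pin tool one day after seeding, either one drug alone or a fixed anchor-drug dose plus five library-drug doses (not always all listed) in √10 steps. Nuclei were counted on 4× images after 5 days of treatment, and values are medians of duplicate plates.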

BX 795 + Phenformin = compound: O=C(NCCCNc1nc(Nc2cccc(NC(=O)N3CCCC3)c2)ncc1I)c1cccs1 [BX 795] + N=C(N)NC(=N)NCCc1ccccc1 [Phenformin] (partner 250 µM)
How it was run: as §1

BX 795 + Foretinib = compound: O=C(NCCCNc1nc(Nc2cccc(NC(=O)N3CCCC3)c2)ncc1I)c1cccs1 [BX 795] + COc1cc2c(Oc3ccc(NC(=O)C4(C(=O)Nc5ccc(F)cc5)CC4)cc3F)ccnc2cc1OCCCN1CCOCC1 [Foretinib] (partner 0.25 µM)
How it was run: as §1

BX 795 + Pictilisib = compound: O=C(NCCCNc1nc(Nc2cccc(NC(=O)N3CCCC3)c2)ncc1I)c1cccs1 [BX 795] + CS(=O)(=O)N1CCN(Cc2cc3nc(-c4cccc5[nH]ncc45)nc(N4CCOCC4)c3s2)CC1 [Pictilisib] (partner 1 µM)
How it was run: as §1

BX 795 + Pemetrexed = compound: O=C(NCCCNc1nc(Nc2cccc(NC(=O)N3CCCC3)c2)ncc1I)c1cccs1 [BX 795] + Nc1nc2[nH]cc(CCc3ccc(C(=O)N[C@@H](CCC(=O)O)C(=O)O)cc3)c2c(=O)[nH]1 [Pemetrexed] (partner 0.2 µM)
How it was run: as §1

BX 795 + Dasatinib = compound: O=C(NCCCNc1nc(Nc2cccc(NC(=O)N3CCCC3)c2)ncc1I)c1cccs1 [BX 795] + Cc1nc(Nc2ncc(C(=O)Nc3c(C)cccc3Cl)s2)cc(N2CCN(CCO)CC2)n1 [Dasatinib] (partner 0.075 µM)
How it was run: as §1

BX 795 + Linsitinib = compound: O=C(NCCCNc1nc(Nc2cccc(NC(=O)N3CCCC3)c2)ncc1I)c1cccs1 [BX 795] + C[C@]1(O)C[C@@H](c2nc(-c3ccc4ccc(-c5ccccc5)nc4c3)c3c(N)nccn32)C1 [Linsitinib] (partner 1 µM)
How it was run: as §1

BX 795 + OSI-027 = compound: O=C(NCCCNc1nc(Nc2cccc(NC(=O)N3CCCC3)c2)ncc1I)c1cccs1 [BX 795] + COc1cccc2cc(-c3nc([C@H]4CC[C@H](C(=O)O)CC4)n4ncnc(N)c34)[nH]c12 [OSI-027] (partner 0.5 µM)
How it was run: as §1

BX 795 + Bortezomib = compound: O=C(NCCCNc1nc(Nc2cccc(NC(=O)N3CCCC3)c2)ncc1I)c1cccs1 [BX 795] + CC(C)C[C@H](NC(=O)[C@H](Cc1ccccc1)NC(=O)c1cnccn1)B(O)O [Bortezomib] (partner 0.002 µM)
How it was run: as §1

BX 795 + Alpelisib = compound: O=C(NCCCNc1nc(Nc2cccc(NC(=O)N3CCCC3)c2)ncc1I)c1cccs1 [BX 795] + Cc1nc(NC(=O)N2CCC[C@H]2C(N)=O)sc1-c1ccnc(C(C)(C)C(F)(F)F)c1 [Alpelisib] (partner 2 µM)
How it was run: as §1

BX 795 + Crizotinib = compound: O=C(NCCCNc1nc(Nc2cccc(NC(=O)N3CCCC3)c2)ncc1I)c1cccs1 [BX 795] + C[C@@H](Oc1cc(-c2cnn(C3CCNCC3)c2)cnc1N)c1c(Cl)ccc(F)c1Cl [Crizotinib] (partner 1 µM)
How it was run: as §1

BX 795 + Luminespib = compound: O=C(NCCCNc1nc(Nc2cccc(NC(=O)N3CCCC3)c2)ncc1I)c1cccs1 [BX 795] + CCNC(=O)c1noc(-c2cc(C(C)C)c(O)cc2O)c1-c1ccc(CN2CCOCC2)cc1 [Luminespib] (partner 0.01 µM)
How it was run: as §1

BX 795 + Vorinostat = compound: O=C(NCCCNc1nc(Nc2cccc(NC(=O)N3CCCC3)c2)ncc1I)c1cccs1 [BX 795] + O=C(CCCCCCC(=O)Nc1ccccc1)NO [Vorinostat] (partner 1 µM)
How it was run: as §1

BX 795 + Tozasertib = compound: O=C(NCCCNc1nc(Nc2cccc(NC(=O)N3CCCC3)c2)ncc1I)c1cccs1 [BX 795] + Cc1cc(Nc2cc(N3CCN(C)CC3)nc(Sc3ccc(NC(=O)C4CC4)cc3)n2)n[nH]1 [Tozasertib] (partner 0.1 µM)
How it was run: as §1

BX 795 + AZD7762 = compound: O=C(NCCCNc1nc(Nc2cccc(NC(=O)N3CCCC3)c2)ncc1I)c1cccs1 [BX 795] + NC(=O)Nc1cc(-c2cccc(F)c2)sc1C(=O)N[C@H]1CCCNC1 [AZD7762] (partner 0.2 µM)
How it was run: as §1

BX 795 + Trametinib = compound: O=C(NCCCNc1nc(Nc2cccc(NC(=O)N3CCCC3)c2)ncc1I)c1cccs1 [BX 795] + CC(=O)Nc1cccc(-n2c(=O)n(C3CC3)c(=O)c3c(Nc4ccc(I)cc4F)n(C)c(=O)c(C)c32)c1 [Trametinib] (partner 0.02 µM)
How it was run: as §1

BX 795 + Olaparib = compound: O=C(NCCCNc1nc(Nc2cccc(NC(=O)N3CCCC3)c2)ncc1I)c1cccs1 [BX 795] + O=C(c1cc(Cc2n[nH]c(=O)c3ccccc23)ccc1F)N1CCN(C(=O)C2CC2)CC1 [Olaparib] (partner 8 µM)
How it was run: as §1

BX 795 + Palbociclib = compound: O=C(NCCCNc1nc(Nc2cccc(NC(=O)N3CCCC3)c2)ncc1I)c1cccs1 [BX 795] + CC(=O)c1c(C)c2cnc(Nc3ccc(N4CCNCC4)cn3)nc2n(C2CCCC2)c1=O [Palbociclib] (partner 0.5 µM)
How it was run: as §1

BX 795 + Decitabine = compound: O=C(NCCCNc1nc(Nc2cccc(NC(=O)N3CCCC3)c2)ncc1I)c1cccs1 [BX 795] + Nc1ncn([C@H]2C[C@H](O)[C@@H](CO)O2)c(=O)n1 [Decitabine] (partner 2 µM)
How it was run: as §1

NCI-H1563
relative viability (BX 795; 0.04 µM): 1.08
relative viability (BX 795; 0.1265 µM): 0.942
relative viability (BX 795; 0.4 µM): 1.03
relative viability (BX 795; 1.265 µM): 0.814
relative viability (BX 795 + Lapatinib; first compound 0.04 µM): 1.01
relative viability (BX 795 + Lapatinib; first compound 0.1265 µM): 1.01
relative viability (BX 795 + Lapatinib; first compound 0.4 µM): 1.05
relative viability (BX 795 + Lapatinib; first compound 1.265 µM): 0.785
relative viability (BX 795 + Phenformin; first compound 0.04 µM): 0.679
relative viability (BX 795 + Phenformin; first compound 0.1265 µM): 0.641
relative viability (BX 795 + Phenformin; first compound 0.4 µM): 0.744
relative viability (BX 795 + Phenformin; first compound 1.265 µM): 0.567
relative viability (BX 795 + Foretinib; first compound 0.04 µM): 0.914
relative viability (BX 795 + Foretinib; first compound 0.1265 µM): 1.04
relative viability (BX 795 + Foretinib; first compound 0.4 µM): 0.925
relative viability (BX 795 + Foretinib; first compound 1.265 µM): 0.848
relative viability (BX 795 + Pictilisib; first compound 0.04 µM): 0.689
relative viability (BX 795 + Pictilisib; first compound 0.1265 µM): 0.522
relative viability (BX 795 + Pictilisib; first compound 0.4 µM): 0.659
relative viability (BX 795 + Pictilisib; first compound 1.265 µM): 0.673
relative viability (BX 795 + Pemetrexed; first compound 0.04 µM): 0.977
relative viability (BX 795 + Pemetrexed; first compound 0.1265 µM): 0.759
relative viability (BX 795 + Pemetrexed; first compound 0.4 µM): 0.857
relative viability (BX 795 + Pemetrexed; first compound 1.265 µM): 0.746
relative viability (BX 795 + Dasatinib; first compound 0.04 µM): 0.476
relative viability (BX 795 + Dasatinib; first compound 0.1265 µM): 0.429
relative viability (BX 795 + Dasatinib; first compound 0.4 µM): 0.439
relative viability (BX 795 + Dasatinib; first compound 1.265 µM): 0.405
relative viability (BX 795 + Linsitinib; first compound 0.04 µM): 1.36
relative viability (BX 795 + Linsitinib; first compound 0.1265 µM): 1.23
relative viability (BX 795 + Linsitinib; first compound 0.4 µM): 1.3
relative viability (BX 795 + Linsitinib; first compound 1.265 µM): 0.905
relative viability (BX 795 + OSI-027; first compound 0.04 µM): 0.782
relative viability (BX 795 + OSI-027; first compound 0.1265 µM): 0.749
relative viability (BX 795 + OSI-027; first compound 0.4 µM): 0.821
relative viability (BX 795 + OSI-027; first compound 1.265 µM): 0.67
relative viability (BX 795 + Bortezomib; first compound 0.04 µM): 0.822
relative viability (BX 795 + Bortezomib; first compound 0.1265 µM): 0.844
relative viability (BX 795 + Bortezomib; first compound 0.4 µM): 0.993
relative viability (BX 795 + Bortezomib; first compound 1.265 µM): 0.752
relative viability (BX 795 + Alpelisib; first compound 0.04 µM): 0.964
relative viability (BX 795 + Alpelisib; first compound 0.1265 µM): 0.859
relative viability (BX 795 + Alpelisib; first compound 0.4 µM): 0.917
relative viability (BX 795 + Alpelisib; first compound 1.265 µM): 0.811
relative viability (BX 795 + Crizotinib; first compound 0.04 µM): 0.852
relative viability (BX 795 + Crizotinib; first compound 0.1265 µM): 0.849
relative viability (BX 795 + Crizotinib; first compound 0.4 µM): 0.82
relative viability (BX 795 + Crizotinib; first compound 1.265 µM): 0.617
relative viability (BX 795 + Luminespib; first compound 0.04 µM): 0.593
relative viability (BX 795 + Luminespib; first compound 0.1265 µM): 0.472
relative viability (BX 795 + Luminespib; first compound 0.4 µM): 0.47
relative viability (BX 795 + Luminespib; first compound 1.265 µM): 0.447

NCI-H1648
relative viability (BX 795; 0.04 µM): 0.872
relative viability (BX 795; 0.1265 µM): 0.804
relative viability (BX 795; 0.4 µM): 0.972
relative viability (BX 795; 1.265 µM): 1.01
relative viability (BX 795 + Vorinostat; first compound 0.04 µM): 0.441
relative viability (BX 795 + Vorinostat; first compound 0.1265 µM): 0.525
relative viability (BX 795 + Vorinostat; first compound 0.4 µM): 0.668
relative viability (BX 795 + Vorinostat; first compound 1.265 µM): 0.535
relative viability (BX 795 + Tozasertib; first compound 0.04 µM): 0.611
relative viability (BX 795 + Tozasertib; first compound 0.1265 µM): 0.466
relative viability (BX 795 + Tozasertib; first compound 0.4 µM): 0.638
relative viability (BX 795 + Tozasertib; first compound 1.265 µM): 0.378
relative viability (BX 795 + AZD7762; first compound 0.04 µM): 0.833
relative viability (BX 795 + AZD7762; first compound 0.1265 µM): 0.756
relative viability (BX 795 + AZD7762; first compound 0.4 µM): 0.791
relative viability (BX 795 + AZD7762; first compound 1.265 µM): 0.911
relative viability (BX 795 + Pemetrexed; first compound 0.04 µM): 0.727
relative viability (BX 795 + Pemetrexed; first compound 0.1265 µM): 0.824
relative viability (BX 795 + Pemetrexed; first compound 0.4 µM): 0.834
relative viability (BX 795 + Pemetrexed; first compound 1.265 µM): 1.02
relative viability (BX 795 + Trametinib; first compound 0.04 µM): 0.526
relative viability (BX 795 + Trametinib; first compound 0.1265 µM): 0.451
relative viability (BX 795 + Trametinib; first compound 0.4 µM): 0.575
relative viability (BX 795 + Trametinib; first compound 1.265 µM): 0.481
relative viability (BX 795 + Olaparib; first compound 0.04 µM): 0.869
relative viability (BX 795 + Olaparib; first compound 0.1265 µM): 1.51
relative viability (BX 795 + Olaparib; first compound 0.4 µM): 1.15
relative viability (BX 795 + Olaparib; first compound 1.265 µM): 1.11
relative viability (BX 795 + Palbociclib; first compound 0.04 µM): 0.267
relative viability (BX 795 + Palbociclib; first compound 0.1265 µM): 0.264
relative viability (BX 795 + Palbociclib; first compound 0.4 µM): 0.411
relative viability (BX 795 + Palbociclib; first compound 1.265 µM): 0.299
relative viability (BX 795 + OSI-027; first compound 0.04 µM): 0.258
relative viability (BX 795 + OSI-027; first compound 0.1265 µM): 0.214
relative viability (BX 795 + OSI-027; first compound 0.4 µM): 0.265
relative viability (BX 795 + OSI-027; first compound 1.265 µM): 0.247
relative viability (BX 795 + Decitabine; first compound 0.04 µM): 0.584
relative viability (BX 795 + Decitabine; first compound 0.1265 µM): 0.442
relative viability (BX 795 + Decitabine; first compound 0.4 µM): 0.523
relative viability (BX 795 + Decitabine; first compound 1.265 µM): 0.616
